Experimental data from patent US20190351012A1, “TARGETING OF INTERFERON-STIMULATED GENE EXPRESSION TO TREAT INTERFERONOPATHIES” (New York University, priority 2018, published 2019).

Experiments:
[1] = system: ISG transcription in HeLa cell nuclei; assay: Run-on nuclear transcription in HeLa nuclei; assay type: cell-based, human
Description: FIG. 2. […] (A) Nuclear extracts from HEK293T cells expressing activated recombinant ISGF3 (STAT1, STAT2, IRF9 and JAK1) or transfected with vector (Ctl) were programmed with G6TI-CAT (G6TI) or p107 (ISG54) templates. Radiolabeled RNA transcripts were resolved by polyacrylamide-urea gel electrophoresis. Arrow and arrowhead indicate position of the transcripts from G6TI-CAT and p107, respectively. (B) HeLa cells were either left untreated or treated with IFN-α in the absence or presence of TSA (TSA in vivo) before nuclei were isolated for run-on transcription. Where indicated, TSA was added to the elongation reaction in vitro (TSA in vitro). Specific signals from γ-actin, ISG15, ISG56, 6-16, 9-27, IRF9 and GBP transcription were quantified following filter hybridization and normalized to the signal for GAPDH, arbitrarily set to 100. […] Mononucleosomal DNA fraction was purified from MNase-digested nuclei and analyzed for nucleosome positions by PCR quantitation of protected fragments. All samples were quantified by real-time PCR, except the—53—+1 ISG54 fragment, which was quantified by gel electrophoresis (C). […]
Run-off transcription is largely a measure of transcriptional […]. […] Nuclei were isolated from cells untreated or treated with IFNα, pulse-labeled in vitro with radioactive nucleotides, and specific transcriptional elongation was quantified by filter hybridization (FIG. 2B). […]

[2] = system: ISG54 promoter activity in HEK293T cells; assay: ISG54 promoter luciferase reporter in HEK293T cells; assay type: cell-based, human
Experimental: FIG. 5. BRD4 is required for ISG transcription. (A) HeLa cells were either left untreated or treated with IFN-α for 1 h in presence or absence of JQ-1 or HMBA. Using primers spanning intron-exon junctions, nuclear pre-mRNA for ISG54 and γ-actin were quantified by real-time RT-PCR and normalized to GAPDH mRNA. (B) Control and BRD4 KD cells were either left untreated or treated with IFN-α. ISG56 and BRD4 mRNA were quantified using real-time RT-PCR and normalized to GAPDH mRNA abundance. (C) HEK293T cells were transfected with pcDNA3 (Ctl) or Brd4 expression constructs along with a luciferase reporter driven by the ISG54 promoter. […] Nuclear proteins were extracted as a soluble fraction and a chromatin bound fraction and analyzed by western blotting using anti-BRD4, H4-AcK5 and actin antibodies. […] (F) ChIP assays were performed with antibodies against BRD4 and recovered ISG56, Mx1 and IRF9 TSS spanning sequences were quantified by real-time PCR, normalized to input, and represented as fold enrichment over the untreated sample.
It has been shown that BRD4 coordinates the recruitment of P-TEFb to regulate transcription of target genes, including ISGs. […] In order to focus on transcriptional events, we again monitored induction of ISG unspliced pre-mRNA. […]
Nuclear extracts were prepared and analyzed by immunoblotting as follows. […]

In the case of `CC(/C=C/C(=O)NO)=C\[C@@H](C)C(=O)c1ccc(N(C)C)cc1` [TSA, Trichostatin A], the “housekeeping and ISG transcription in nuclear run-on” value ([1]; TSA added to the in vitro run-on reaction) is reported as “failed to affect”, the “ISG transcription in isolated nuclei” value ([1]; cells stimulated with IFN in the presence of TSA (TSA in vivo)) is reported as “impaired” and the “IFN-driven ISG54 promoter activity (luciferase)” value ([2]; HEK293T cells) is reported as “completely suppressed”. The “Brd4-driven ISG54 promoter expression (luciferase)” value ([2]; HEK293T cells overexpressing Brd4, with or without TSA and IFN) was “No significant differences”.
